Here are results for 2 compounds from patent US20220161456A1, “S[…] PRESERVATIVE COMPOSITION COMPRISING POLYMERIC BETAINE AND CARBAMATE” (Troy Corporation, priority 2019, published 2022).

The experiment deals with Penicillium funiculosum (ATCC #11797). The experiment in a line: EUCAST 96-well plate fungal growth inhibition (MIC). The conditions noted are these: for MIC: Penicillium funiculosum ATCC 11797, 3 days at 35° C. More on the design: key to growth of Penicillium funiculosum in 96-well plates: (+) in each block indicates growth; (−) indicates no growth, i.e., the inhibitor was effective. It is filed as cell-based. The method, then:
(A) 0.17 g of 60% DPAB aqueous solution (ProTek® PBT or Polymeric Betaine EP or Polymeric Betaine Technical Grade Active Ingredient Wood Preservative, Troy Chemical Corporation, Newark, N.J.) was diluted in 9.83 g ethanol by stirring to form a concentrate containing 1% DPAB.
(B) 0.25 g of 40% IPBC solvent solution (Polyphase® AF-1, Troy Chemical Corporation, Newark, N.J.) was diluted in 9.75 g ethanol by stirring to form a concentrate containing 1% IPBC.
(C) 21.04 g of 60% DPAB aqueous solution (ProTek® PBT or Polymeric Betaine EP or Polymeric Betaine Technical Grade Active Ingredient Wood Preservative, Troy Chemical Corporation, Newark, N.J.), 6.25 g of 40% IPBC solvent solution (Polyphase AF-1, Troy Chemical Corporation, Newark, N.J.) and 22.74 g of ethanol were mixed and stirred. The resulting concentrate contained 25% polymeric betaine and 5% IPBC. The weight ratio of polymeric betaine to IPBC was 5:1. 0.33 g of this IPBC/polymeric betaine concentrate was diluted in 9.67 g of ethanol to form a use-dilution containing about 0.83% DPAB and 0.17% IPBC.
Solutions prepared as described above were tested in 96-well plates for their ability to inhibit fungal growth. The solutions were tested according to the EUCAST methodology as described in Rodriguez-Tudela et al. 2006 “Antifungal susceptibility testing in Aspergillus spp. according to EUCAST methodology,” the contents of which are incorporated by reference herein. The solutions were checked for inhibition against fungal organisms Aspergillus niger (ATCC #6275), Aureobasidium pullulans (ATCC #9348), Penicillium funiculosum (ATCC #11797) and Trichoderma pseudokoningii (ATCC #26801). This method is described below:
(1) Prepared preservative test wells by adding 2 microliters of each 1% preservative solution formulation to 198 microliters of 2xRPMI-MOPS-2% Glucose in each column “1” in duplicate.
(2) Added 100 microliters of 2xRPMI-MOPS-2% Glucose to the remaining columns.
(3) Performed 2-fold dilutions down the columns to column “12”.
(4) Prepared suspension of microorganisms from a 3-5 day old PDA slants by flooding slant with 1 mL deionized water and 0.1% Tween-20.
(5) Suspension strength was determined via hemocytometer then adjusted to 1×10^6 spores/mL with sterile deionized water.
(6) Added 100 microliters of the microorganism suspension to all wells except for sterility (−) controls containing test media. The water used to prepare the fungal suspensions was added to sterility (−) control wells.
(7) The inoculated 96-well plates were incubated for 3 days at 35° C.
(8) After incubation, fungal growth was evaluated by visual growth in test wells. Minimum inhibitory concentration (MIC) is recorded in ppm and defined as the lowest concentration of fungicide that produces no visual changes in turbidity in the test wells.
Minimal inhibitory concentration of the composition of this invention (mixture of DPAB and IPBC) are analyzed using the following equation:
MCA=Concentration of compound A in parts per million, acting alone, which prevents fungal growth at the reference point
MCA′=Concentration of compound A in parts per million, in the mixture, which prevents fungal growth at the reference point
MCB=Concentration of compound B in parts per million, acting alone, which prevents fungal growth at the reference point
MCB′=Concentration of compound B in parts per million, in the mixture, which prevents fungal growth at the reference point
When SI is greater than 2, antagonism is indicated. […] When SI is between 0.5 and 2, the action of biocides is additive.

The compound “didecyl bis(hydroxyethyl) ammonium borate [DPAB]” displayed an MIC of 6.25 ppm. The “growth of Penicillium funiculosum in 96-well plates” value (“growth of Penicillium funiculosum” for short) (well 1, concentration 50.00) was “−”. Moreover, for the setting “well 2, concentration 25.00”, the “growth of Penicillium funiculosum” value was “−”. Moreover, the “growth of Penicillium funiculosum” value (well 3, concentration 12.50) is on record as “−”. Besides, the “growth of Penicillium funiculosum” value (well 4, concentration 6.25) is recorded as “−”. Further, under “well 5, concentration 3.13”, the “growth of Penicillium funiculosum” value is listed as “+”. In addition, where the note is “well 6, concentration 1.56”, the “growth of Penicillium funiculosum” value was “+”. Also, the “growth of Penicillium funiculosum” value (well 7, concentration 0.78) was “+”. Moreover, the “growth of Penicillium funiculosum” value (well 8, concentration 0.39) is “+”. Further, for the setting “well 9, concentration 0.20”, the “growth of Penicillium funiculosum” value is “+”. The “growth of Penicillium funiculosum” value (well 10, concentration 0.10) was “+”. Moreover, the “growth of Penicillium funiculosum” value (well 11, concentration 0.05) was “+”. Also, the “growth of Penicillium funiculosum” value (well 12, concentration 0.02) was “+”.
For the compound `CCCCNC(=O)OCC#CI` [IPBC, 3-iodo-2-propynyl butyl carbamate], the MIC is 0.78 ppm. The “growth of Penicillium funiculosum” value (well 1, concentration 50.00) is “−”. Further, under “well 2, concentration 25.00”, the “growth of Penicillium funiculosum” value is recorded as “−”. For the same compound, under “well 3, concentration 12.50”, the “growth of Penicillium funiculosum” value is “−”. The “growth of Penicillium funiculosum” value (well 4, concentration 6.25) is reported as “−”. Under “well 5, concentration 3.13”, the “growth of Penicillium funiculosum” value is recorded as “−”. Also, the “growth of Penicillium funiculosum” value (well 6, concentration 1.56) is on record as “−”. Moreover, the “growth of Penicillium funiculosum” value (well 7, concentration 0.78) is on record as “−”. Moreover, the “growth of Penicillium funiculosum” value (well 8, concentration 0.39) is recorded as “+”. In addition, under “well 9, concentration 0.20”, the “growth of Penicillium funiculosum” value is recorded as “+”. Further, the “growth of Penicillium funiculosum” value (well 11, concentration 0.05) is “+”. For the same compound, where the note is “well 12, concentration 0.02”, the “growth of Penicillium funiculosum” value is “+”.
